Tests used:
Type in all cases: biochemical
[1] = target: T1, human DNC (mitochondrial deoxynucleotide carrier) (Homo sapiens, UniProt Q9HC21); test: Kinetics of [α-35S]dATP/ADP exchange in proteoliposomes reconstituted with recombinant DNC; details: for Km: external substrate, internal ADP or dADP 10 mM, read-out: transport affinity (Km)
T1 construct: Amino acids are numbered from 1-320; made in house; host or cells: E. coli BL21(DE3), pET21b; inclusion bodies solubilized in sarkosyl, Ni-NTA purified
T1 sequence (Q9HC21 2-320 limits assumed): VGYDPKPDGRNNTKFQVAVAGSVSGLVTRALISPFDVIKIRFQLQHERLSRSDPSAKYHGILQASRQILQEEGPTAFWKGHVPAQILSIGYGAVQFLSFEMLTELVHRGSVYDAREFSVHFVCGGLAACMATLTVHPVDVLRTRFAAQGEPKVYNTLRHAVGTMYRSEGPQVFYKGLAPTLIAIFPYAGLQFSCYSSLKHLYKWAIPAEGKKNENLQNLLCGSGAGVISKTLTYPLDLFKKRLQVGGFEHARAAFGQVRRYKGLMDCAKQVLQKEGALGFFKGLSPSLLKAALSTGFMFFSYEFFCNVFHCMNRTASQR
Description: (§1) FIG. 3. Time course of dATP/ADP exchange and substrate specificity of human DNC. (a) Time course of [α-35 S]dATP/ADP exchange in proteoliposomes reconstituted with the recombinant DNC. [α-35 S]dATP (1 mM) was added to proteoliposomes containing 10 mM ADP (⋄) or 10 mM NaCl (∇). (b) Dependence of DNC activity on internal substrate. Proteoliposomes were preloaded internally with various substrates (concentration 10 mM). Trans-port was started by addition of […] [α-35 S]dATP and stopped after 2 min. The values are means 6 SD of at least three experiments. (c) Inhibition of the rate of [α-35 S]dATP uptake by external substrates. Proteoliposomes were preloaded internally with 10 mM ADP. Transport was started by adding 125 mM [α-35 S]dATP and stopped after 2 min. External substrates (concentration 0.5 mM) were added together with [α-35 S]dATP. The extents of inhibition (%) from a representative experiment are reported. The control value for uninhibited exchange was 0.45 mmol/min per gram of protein.
(§2) The recombinant protein in sarkosyl was reconstituted into liposomes in the presence of substrates (10). Both cardiolipin (1.14 mg/ml) and EDTA (1 mM) were added. Transport was measured at 25° C. with internal and external pHs at 6.8. It was started by adding [α-35S]dATP or [^14C]-ADP and terminated after 2 min by addition of 100 mM of p-chloromercuribenzene sulfonate (10). Entrapped radioactivity was counted (10). The initial transport rate was calculated from the radioactivity taken up by proteoliposomes within 2 min (in the initial linear range). Other transport activities were assayed similarly (10). The amount of DNC incorporated into liposomes was measured as described (11) and varied between 15 and 20% of the protein added to the reconstitution mixture.

[2] = target: T1, human DNC (mitochondrial deoxynucleotide carrier); test: Homo-exchange of other carrier substrates in DNC proteoliposomes; details: internal concentration 10 mM; external concentration 1 mM
Description: as §2, with “Both cardiolipin (1.14 mg/ml) and EDTA (1 mM) were added.” left out, “(10).” for “(10). The amount of DNC incorporated into liposomes was measured as described (11) and varied between 15 and 20% of the protein added to the reconstitution mixture.”

[3] = target: T1, human DNC (mitochondrial deoxynucleotide carrier); test: Dependence of DNC activity ([α-35S]dATP uptake) on internal substrate; details: internal substrate 10 mM; 2 min
Description: as §1, with “Transport was started by adding 125 mM [α-35 S]dATP and stopped after 2 min.” left out, “reported.” for “reported. The control value for uninhibited exchange was 0.45 mmol/min per gram of protein.”
as §2, with “Both cardiolipin (1.14 mg/ml) and EDTA (1 mM) were added.” left out, “(10).” for “(10). The amount of DNC incorporated into liposomes was measured as described (11) and varied between 15 and 20% of the protein added to the reconstitution mixture.”

| SMILES | Km [1] | rate constant of exchange of [α-35 S]dATP for dADP or ADP (first-order kinetics) ([1]; reconstituted human DNC, 25° C., pH 6.8) | homo-exchange catalysed by reconstituted DNC [2] | rate of [α-35 S]dATP uptake into proteoliposomes with internal substrate [3] |
| --- | --- | --- | --- | --- |
| Nc1ncnc2c1ncn2[C@H]1C[C@H](O)[C@@H](COP(=O)(O)OP(=O)(O)OP(=O)(O)O)O1 [dATP] | 106 ± 15 µM | 0.02 min⁻¹ |  |  |
| C[N+](C)(C)CC(O)CC(=O)[O-] (stereo not drawn) [carnitine] |  |  | did not catalyse | virtually no activity |
| NC(=O)CC[C@H](N)C(=O)O [glutamine] |  |  | did not catalyse |  |
| O=C(O)CCC(=O)C(=O)O [oxoglutarate] |  |  | did not catalyse | virtually no activity |
| Nc1ncnc2c1ncn2[C@@H]1O[C@H](COP(=O)(O)OP(=O)(O)O)[C@@H](O)[C@H]1O [ADP] | 42.6 ± 4.7 µM |  |  | highest rates |
| O=C(O)CC(O)C(=O)O (stereo not drawn) [malate] |  |  | did not catalyse |  |
| N[C@@H](CCC(=O)O)C(=O)O [glutamate] |  |  | did not catalyse |  |
| NCCC[C@H](N)C(=O)O [ornithine] |  |  | did not catalyse |  |
